This note sets out measurements from patent publication US11485742B2, “2-azaspiro[3.4]octane derivatives as M4 agonists” (NOVARTIS AG, priority 2019, dated 2022).

For orientation: EC50 means the concentration needed to bring the measured effect to its halfway point.

For this assay, the target named is T1, human cloned CHRM2 receptor (Homo sapiens, UniProt P08172).
T1 construct: expressed in transfected cells; host or cells: CHO-K1 (M2_CHO)
T1 sequence (P08172 1-466): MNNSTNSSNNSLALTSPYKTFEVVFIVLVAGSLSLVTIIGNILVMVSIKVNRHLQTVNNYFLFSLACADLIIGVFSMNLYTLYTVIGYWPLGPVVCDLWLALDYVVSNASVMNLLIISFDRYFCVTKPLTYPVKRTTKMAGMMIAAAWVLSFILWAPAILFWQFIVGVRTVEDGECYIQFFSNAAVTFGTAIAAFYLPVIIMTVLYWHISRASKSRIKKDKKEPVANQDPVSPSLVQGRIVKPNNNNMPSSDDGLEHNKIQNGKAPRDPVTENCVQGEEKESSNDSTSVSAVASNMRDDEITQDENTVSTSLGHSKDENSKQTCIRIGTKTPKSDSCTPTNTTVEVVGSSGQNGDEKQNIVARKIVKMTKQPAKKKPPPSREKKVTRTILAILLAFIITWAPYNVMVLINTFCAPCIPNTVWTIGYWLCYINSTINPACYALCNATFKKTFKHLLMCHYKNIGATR
In words: CHRM2 Ca++ Flux Assay (M2_CHO cells, agonist mode). In kind it is cell-based. The conditions noted are these: M2 CHO cells; for EC50: agonist mode, geometric mean if tested more than once, read-out: M2 FDSS EC50; for M2 FDSS PA % / Emax: Percent Activity (PA) measured to EC100 of Carbachol; for Emax: read-out: M2 FDSS PA %. How it is done:
The above examples were characterized by measuring the intracellular mobilization of Ca^++ ions caused by signaling events mediated by the receptor. The Intra-cellular Calcium flux levels were captured by the highly sensitive Ca^++ indicator, Calcium Assay Kit (BD Biosciences; Catalog Number 640178. The fluorescent activity from all receptors were monitored by the fluorescent imager, FDSS 7000EX (Hamamatsu) over a span of 3 minutes. The change in Calcium flux was readily captured upon activation with the muscarinic orthosteric agonist, Carbachol.
CHO-K1 cells stably expressing the human cloned CHRM2 receptor (M2_CHO cells) were grown and maintained in a monolayer culture with F12/HAM (Life Technologies) supplemented with 10% Fetal Bovine Serum, 1×Pen-Strep, and 0.4 mg/mL Geneticin in a humidified atmosphere (5% CO2) at 37° C. The cultures were grown to 80-90% confluency in T150 flasks (Corning) and washed with 1×DPBS and lifted with 0.05% Trypsin (Life Technologies). The cells were then spun (1K rpm, 3 minutes) and frozen using Recovery Cell Culture Freezing Media (Gibco Technologies). Cells were stored in liquid nitrogen and thawed a day before the assay.
Prior to the day of the assay, stable M2 CHO cells were thawed and plated on Greiner 384 well TC treated plate at a density of 12K cells/well and kept overnight in a humidified atmosphere (5% CO2) at 37° C. The following day, the cells were loaded with Ca^++ dye (BD Biosciences) using Loading Buffer (HBSS +Ca/+Mg, 20 mM HEPES, 2.5 mM Probenecid) and placed back in cell incubator for a minimum of 1 hour and maximum of 2 hours. After incubation, the dye was replaced with Assay Buffer (HBSS −Ca/−Mg, 20 mM HEPES, 2.5 mM Probenecid) supplemented with 20 μM ATP (Sigma Aldrich) and kept at room temperature for 60 minutes prior before running on cell imager. The FDSS 7000EX (Hamamatsu) was used to acquire Ca^++ traces from cells in response to compound treatment and the data was used to generate dose response curves in agonist mode. All compounds were serially diluted in DMSO then prepared in Assay Buffer for Ca^−+ flux studies. The dose response curves were generated from the average of triplicate wells obtained from each data point and used a non-linear regression of four parameter dose response algorithm. The Percent Activity (PA) was measured to EC100 of Carbachol.
If an Example was tested more than once in an assay, then the values below represent the geometric mean of the results from each independent experiment.

On to `OC[C@H]1C[C@H](Oc2ccc(F)cc2C2CCN([C@@H]3COC4(C3)CN(c3nnco3)C4)CC2)C1` (single isomer, unassigned) [Example 2HH, ((1S,3r)-3-(2-(1-((S)-2-(1,3,4-oxadiazol-2-yl)-5-oxa-2-azaspiro[3.4]octan-7-yl)piperidin-4-yl)-4-fluorophenoxy)cyclobutyl)methanol or ((1R,3s)-3-(2-(1-((S)-2-(1,3,4-oxadiazol-2-yl)-5-oxa-2-azaspiro[3.4]octan-7-yl)piperidin-4-yl)-4-fluorophenoxy)cyclobutyl)methanol], for which the EC50 was determined as 6.57 µM and the “M2 FDSS PA %” value is reported as 25%.

As for `Fc1ccc(OC2CCOCC2)c(C2CCN([C@@H]3COC4(C3)CN(c3nnco3)C4)CC2)c1` [Example 1G, (S)-7-(4-(5-fluoro-2-((tetrahydro-2H-pyran-4-yl)oxy)phenyl)piperidin-1-yl)-2-(1,3,4-oxadiazol-2-yl)-5-oxa-2-azaspiro[3.4]octane], the EC50 came out at 1.25 µM and the Emax was 35%.

Turning to `Fc1ccc(OCC2C3COCC32)c(C2CCN([C@@H]3COC4(C3)CN(c3nnco3)C4)CC2)c1` (stereo partly drawn) [Example 2Z, (7S)-7-(4-(2-((3-oxabicyclo[3.1.0]hexan-6-yl)methoxy)-5-fluorophenyl)piperidin-1-yl)-2-(1,3,4-oxadiazol-2-yl)-5-oxa-2-azaspiro[3.4]octane], the EC50 came out at 0.76 µM and the Emax amounted to 24%.

With `COCCOc1ccc(F)cc1C1CCN([C@@H]2COC3(C2)CN(c2nncs2)C3)CC1` [Example 5S, (S)-7-(4-(5-fluoro-2-(2-methoxyethoxy)phenyl)piperidin-1-yl)-2-(1,3,4-thiadiazol-2-yl)-5-oxa-2-azaspiro[3.4]octane], the EC50 came to 4.6 µM and the Emax was found to be 23%.

Take `Fc1cc(F)c(OC2CC3(COC3)C2)c(C2CCN([C@@H]3COC4(C3)CN(c3nnco3)C4)CC2)c1` [Example 2AA, (S)-7-(4-(2-((2-oxaspiro[3.3]heptan-6-yl)oxy)-3,5-difluorophenyl)piperidin-1-yl)-2-(1,3,4-oxadiazol-2-yl)-5-oxa-2-azaspiro[3.4]octane]: the 50% effective concentration (EC50) amounted to 7.98 µM and the Emax turned out to be 22%.

Take `Fc1cc(F)c(OCC2COC2)c(C2CCN([C@@H]3COC4(C3)CN(c3nnco3)C4)CC2)c1` [Example 2DD, (S)-7-(4-(3,5-difluoro-2-(oxetan-3-ylmethoxy)phenyl)piperidin-1-yl)-2-(1,3,4-oxadiazol-2-yl)-5-oxa-2-azaspiro[3.4]octane]: the EC50 was 6.76 µM and the Emax was determined as 23%.

For `Fc1cc(F)c(OC2CCOCC2)c(C2CCN([C@@H]3COC4(C3)CN(c3nnco3)C4)CC2)c1` [Example 2BB, (S)-7-(4-(3,5-difluoro-2-((tetrahydro-2H-pyran-4-yl)oxy)phenyl)piperidin-1-yl)-2-(1,3,4-oxadiazol-2-yl)-5-oxa-2-azaspiro[3.4]octane], the EC50 was found to be 4.85 µM and the Emax turned out to be 27%.

`CC(C)(O)[C@H]1C[C@@H](Oc2ccc(F)cc2C2CCN([C@@H]3COC4(C3)CN(c3ncco3)C4)CC2)C1` (single isomer, unassigned) [Example 4U, 2-((1R,3s)-3-(4-fluoro-2-(1-((S)-2-(oxazol-2-yl)-5-oxa-2-azaspiro[3.4]octan-7-yl)piperidin-4-yl)phenoxy)cyclobutyl)propan-2-ol or 2-((1S,3r)-3-(4-fluoro-2-(1-((S)-2-(oxazol-2-yl)-5-oxa-2-azaspiro[3.4]octan-7-yl)piperidin-4-yl)phenoxy)cyclobutyl)propan-2-ol]: the EC50 was 15.2 µM and the “M2 FDSS PA %” value amounted to 38%.

Turning to `CC(C)(O)[C@H]1C[C@H](Oc2ccc(F)cc2C2CCN([C@@H]3COC4(C3)CN(c3nnco3)C4)CC2)C1` (single isomer, unassigned) [Example 2W, 2-((1S,3r)-3-(2-(1-((S)-2-(1,3,4-oxadiazol-2-yl)-5-oxa-2-azaspiro[3.4]octan-7-yl)piperidin-4-yl)-4-fluorophenoxy)cyclobutyl)propan-2-ol or 2-((1R,3s)-3-(2-(1-((S)-2-(1,3,4-oxadiazol-2-yl)-5-oxa-2-azaspiro[3.4]octan-7-yl)piperidin-4-yl)-4-fluorophenoxy)cyclobutyl)propan-2-ol], the concentration giving a half-maximal response (EC50) worked out at 3.08 µM and the “M2 FDSS PA %” value stood at 29%.

Consider `COCCOc1ccc(F)cc1C1CCN([C@@H]2COC3(C2)CN(c2ncco2)C3)CC1` [Example 4L, (S)-7-(4-(5-fluoro-2-(2-methoxyethoxy)phenyl)piperidin-1-yl)-2-(oxazol-2-yl)-5-oxa-2-azaspiro[3.4]octane], for which the 50% effective concentration (EC50) was more than 25 µM and the Emax is 0%.

On to `O[C@H]1CC[C@@H](c2ccc(F)cc2C2CCN([C@@H]3COC4(C3)CN(c3nnco3)C4)CC2)CC1` (single isomer, unassigned) [Example 3I, (1R,4s)-4-(2-(1-((S)-2-(1,3,4-oxadiazol-2-yl)-5-oxa-2-azaspiro[3.4]octan-7-yl)piperidin-4-yl)-4-fluorophenyl)cyclohexan-1-ol or (1S,4r)-4-(2-(1-((S)-2-(1,3,4-oxadiazol-2-yl)-5-oxa-2-azaspiro[3.4]octan-7-yl)piperidin-4-yl)-4-fluorophenyl)cyclohexan-1-ol], for which the EC50 is 3.86 µM and the “M2 FDSS PA %” value is 32%.

As to `Fc1ccc(O[C@@H]2CCOC2)c(C2CCN([C@@H]3COC4(C3)CN(c3nncs3)C4)CC2)c1` [Example 5H, (S)-7-(4-(5-fluoro-2-(((R)-tetrahydrofuran-3-yl)oxy)phenyl)piperidin-1-yl)-2-(1,3,4-thiadiazol-2-yl)-5-oxa-2-azaspiro[3.4]octane], the EC50 came to 0.443 µM and the Emax came out at 40%.

For `c1ccc([C@@H]2CCOC2)c(C2CCN([C@@H]3COC4(C3)CN(c3nnco3)C4)CC2)c1` (single isomer, unassigned) [Example 3A, (S)-2-(1,3,4-oxadiazol-2-yl)-7-(4-(2-((S)-tetrahydrofuran-3-yl)phenyl)piperidin-1-yl)-5-oxa-2-azaspiro[3.4]octane or (S)-2-(1,3,4-oxadiazol-2-yl)-7-(4-(2-((R)-tetrahydrofuran-3-yl)phenyl)piperidin-1-yl)-5-oxa-2-azaspiro[3.4]octane], the EC50 was determined as 1.57 µM and the “M2 FDSS PA %” value is recorded as 35%.

For the compound `Fc1cc(OCC2COC2)c(C2CCN([C@@H]3COC4(C3)CN(c3ncco3)C4)CC2)cc1F` [Example 4O, (S)-7-(4-(4,5-difluoro-2-(oxetan-3-ylmethoxy)phenyl)piperidin-1-yl)-2-(oxazol-2-yl)-5-oxa-2-azaspiro[3.4]octane], the EC50 came to 12.7 µM and the Emax turned out to be 31%.

Turning to `CC(C)(O)[C@H]1C[C@H](Oc2ccc(F)cc2C2CCN([C@@H]3COC4(C3)CN(c3nnco3)C4)CC2)C1` (single isomer, unassigned) [Example 2V, 2-((1S,3r)-3-(2-(1-((S)-2-(1,3,4-oxadiazol-2-yl)-5-oxa-2-azaspiro[3.4]octan-7-yl)piperidin-4-yl)-4-fluorophenoxy)cyclobutyl)propan-2-ol or 2-((1R,3s)-3-(2-(1-((S)-2-(1,3,4-oxadiazol-2-yl)-5-oxa-2-azaspiro[3.4]octan-7-yl)piperidin-4-yl)-4-fluorophenoxy)cyclobutyl)propan-2-ol], the EC50 was determined as 1.08 µM and the “M2 FDSS PA %” value turned out to be 28%.

For `Fc1ccc(OC2COC2)c(C2CCN([C@@H]3COC4(C3)CN(c3ncco3)C4)CC2)c1` [Example 4A, (S)-7-(4-(5-fluoro-2-(oxetan-3-yloxy)phenyl)piperidin-1-yl)-2-(oxazol-2-yl)-5-oxa-2-azaspiro[3.4]octane], the EC50 was found to be 0.432 µM and the Emax came out at 21%.
